Patent US11667649B2, “Heteroaromatic macrocyclic ether chemotherapeutic agents” (Nuvalent, Inc., priority 2020, dated 2023)

Assays:
ROS1-wt kinase domain = biological target: T1, ROS1-wt kinase domain (Homo sapiens, UniProt P08922); test: Biochemical kinase assay, ROS1-wt; conditions: 2 mM ATP substrate solution, read-out: Ki^app ROS1-wt
T1 construct: TRKA-wt (1 nM, BPS Bio, 40280) kinase domains in buffer; purchased Carna 08-163
Method: (§1) First, 250 nL of compound dissolved in DMSO (100-fold of the desired concentration) was dispensed into a 384-well plate. A 12.5 μL substrate solution containing ATP (2 mM) and fluorogenic phosphorylation substrate AQT0101 (26 μM for ALK and ROS1, AssayQuant) or AQT0104 (26 μM for TRKA, AssayQuant) in buffer (50 mM HEPES pH 7.5, 0.01% Brij-35, 0.5 mM EGTA, 10 mM MgCl2) was added and mixed thoroughly. Then, a 12.5 μL kinase solution containing ALK-wt (1.5 nM, Carna, 08-518), ALK ALK L1196M/G1202R (3 nM, SignalChem, A19-12NG), ROS1-wt (0.6 nM, Carna, 08-163), ROS1-G2032R (0.5 nM, SignalChem, R14-12BG), or TRKA-wt (1 nM, BPS Bio, 40280) kinase domains in buffer ([…] HEPES pH 7.5, 0.01% Brij-35, 2% glycerol, 0.4 mg/mL BSA, 0.5 mM EGTA, and 10 mM MgCl2) was added and mixed thoroughly. The plate was sealed and read by SpectraMax Paradigm at λ=485 nm every 2 minutes for 120 minutes at 30° C. Initial rates of reaction (v) were calculated from the change in fluorescence intensity over time during the initial, linear portion of the reaction. Finally, apparent inhibitory constants (Ki^app) were determined from regression of v and I (inhibitor concentration) to Morrison Equation (E=enzyme concentration): […]

[1] = biological target: T2, ROS1-G2032R kinase domain (Homo sapiens, UniProt P08922, G2032R); test: Biochemical kinase assay, ROS1-G2032R; conditions: 2 mM ATP substrate solution, read-out: Ki^app ROS1-G2032R
T2 construct: TRKA-wt (1 nM, BPS Bio, 40280) kinase domains in buffer; purchased SignalChem R14-12BG
Method: as §1

[2] = biological target: T3, ALK L1196M/G1202R kinase domain (Homo sapiens, UniProt Q9UM73, G1202R/L1196M); test: Biochemical kinase assay, ALK L1196M/G1202R; conditions: 2 mM ATP substrate solution, read-out: Ki^app ALK-L1196M-G1202R
T3 construct: TRKA-wt (1 nM, BPS Bio, 40280) kinase domains in buffer; purchased SignalChem A19-12NG
Method: as §1

ALK-wt kinase domain = biological target: T4, ALK-wt kinase domain (Homo sapiens, UniProt Q9UM73); test: Biochemical kinase assay, ALK-wt; conditions: 2 mM ATP substrate solution, read-out: Ki^app ALK-wt
T4 construct: TRKA-wt (1 nM, BPS Bio, 40280) kinase domains in buffer; purchased Carna 08-518
Method: as §1

TRKA-wt kinase domain = biological target: T5, TRKA-wt kinase domain (Homo sapiens, UniProt P04629); test: Biochemical kinase assay, TRKA-wt; conditions: 2 mM ATP substrate solution, read-out: Ki^app TRKA-wt
T5 construct: TRKA-wt (1 nM, BPS Bio, 40280) kinase domains in buffer; purchased BPS Bio 40280
Method: as §1

[3] = tested on: TPM3-NTRK1-wt IC50 / primary target (e.g. CD74-ROS1-wt) IC50, Ba/F3 cells; test: Cell assay TRKA selectivity (TRKA potency divided by primary target potency); assay type: cell-based; conditions: for TPM3-NTRK1-wt/CD74-ROS1-G2032R: TRKA selectivity ratio: TPM3-NTRK1-wt IC50 / CD74-ROS1-G2032R IC50, Ba/F3 cells; for TPM3-NTRK1-wt/CD74-ROS1-wt: TRKA selectivity ratio: TPM3-NTRK1-wt IC50 / CD74-ROS1-wt IC50, Ba/F3 cells; for TPM3-NTRK1-wt/EML4-ALK-L1196M-G1202R: TRKA selectivity ratio: TPM3-NTRK1-wt IC50 / EML4-ALK-L1196M-G1202R IC50, Ba/F3 cells; for TPM3-NTRK1-wt/EML4-ALK-wt: TRKA selectivity ratio: TPM3-NTRK1-wt IC50 / EML4-ALK-wt IC50, Ba/F3 cells
In short: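 IL-3-independent Ba/F3 lines stably expressing TPM3-TRKA or the primary fusion (e.g. CD74-ROS1 wt) were exposed to 3-fold compound dilutions for 72 h. Viability was read by CellTiter-Glo luminescence, with IC50 from four-parameter logistic fit. Selectivity is TPM3-NTRK1 IC50 divided by primary-target IC50, binned A (>30-fold) to D (<1).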

SMILES	Ki (ROS1-wt kinase domain) [nM]	Ki [1] [nM]	Ki [2] [nM]	Ki (ALK-wt kinase domain) [nM]	Ki (TRKA-wt kinase domain) [nM]	TPM3-NTRK1-wt/CD74-ROS1-G2032R [3]	TPM3-NTRK1-wt/CD74-ROS1-wt [3]	TPM3-NTRK1-wt/EML4-ALK-L1196M-G1202R [3]	TPM3-NTRK1-wt/EML4-ALK-wt [3]
CCn1ncc2c1-c1ccc(F)cc1[C@@H](C)Oc1cc(cnc1N)-c1c(cnn1C)C2 [Compound 4]	< 50	< 50	< 50	< 50	< 50				
C[C@H]1Oc2cc(cnc2N)-c2c(cnn2C2CCC2)Cc2cnn(C)c2-c2ccc(F)cc21 [Compound 5]	< 50	< 50	< 50	< 50	> 500				
C[C@H]1Oc2cc(cnc2N)-c2c(C#N)cnn2Cc2cn(C)nc2-c2ccc(F)cc21 [Compound 9]	< 50	< 50	< 50	< 50	> 500				
C[C@H]1Oc2cc(cnc2N)-c2c(C#N)ncn2Cc2cn(C)nc2-c2ccc(F)cc21 [Compound 13]	< 50	< 50	< 50	< 50	> 500				
CCn1ncc2c1-c1cnc(N)c(c1)O[C@H](C)c1cc(F)ccc1-n1ncc(F)c1C2 [Compound 46]		< 50	< 50	< 50	< 50				
CCc1nn(C)c2c1-c1cnc(N)c(c1)O[C@H](C)c1cc(F)ccc1-c1nc(C)sc1C2 [Compound 173]			< 50		< 50				
CCc1nn(C)c2c1-c1cnc(N)c(c1)OCc1cc(F)ccc1-c1nn(C)cc1C2 [Example 176, 3-ethyl-16-fluoro-5,10-dimethyl-20-oxa-4,5,10,11,23-pentaazapentacyclo[19.3.1.0^2,^6.0^8,^12.0^13,^18]pentacosa-1(24),2(6),3,8,11,13,15,17,21(25),22-decaen-22-amine]						A (bin A for very high selectivity, ratio>30-fold)	A (bin A for very high selectivity, ratio>30-fold)	B (bin B for high selectivity, ratio>10-fold)	A (bin A for very high selectivity, ratio>30-fold)
C[C@H]1Oc2cc(cnc2N)-c2c(nn(C)c2CC2CC2)Cc2ccnn2-c2ccc(F)cc21 [Example 177, (19R)-3-(cyclopropylmethyl)-16-fluoro-4,19-dimethyl-20-oxa-4,5,11,12,23-pentaazapentacyclo[19.3.1.0^2,^6.0^8,^12.0^13,^18]pentacosa-1(24),2,5,8,10,13,15,17,21(25),22-decaen-22-amine]						A (bin A for very high selectivity, ratio>30-fold)	A (bin A for very high selectivity, ratio>30-fold)	B (bin B for high selectivity, ratio>10-fold)	A (bin A for very high selectivity, ratio>30-fold)
C[C@H]1Oc2cc(cnc2N)-c2c(CC3CC3)nn(C)c2Cc2cn(C)nc2-c2ccc(F)cc21 [Example 178, (19R)-3-(cyclopropylmethyl)-16-fluoro-5,10,19-trimethyl-20-oxa-4,5,10,11,23-pentaazapentacyclo[19.3.1.0^2,^6.0^8,^12.0^13,^18]pentacosa-1(24),2(6),3,8,11,13,15,17,21(25),22-decaen-22-amine]						A (bin A for very high selectivity, ratio>30-fold)	A (bin A for very high selectivity, ratio>30-fold)	A (bin A for very high selectivity, ratio>30-fold)	A (bin A for very high selectivity, ratio>30-fold)
C[C@H]1Oc2cc(cnc2N)-c2c(nn(C)c2CC2CC2)Cc2cn(C)nc2-c2ccc(F)cc21 [Example 179, (19R)-3-(cyclopropylmethyl)-16-fluoro-4,10,19-trimethyl-20-oxa-4,5,10,11,23-pentaazapentacyclo[19.3.1.0^2,^6.0^8,^12.0^13,^18]pentacosa-1(24),2,5,8,11,13,15,17,21(25),22-decaen-22-amine]						A (bin A for very high selectivity, ratio>30-fold)	A (bin A for very high selectivity, ratio>30-fold)	A (bin A for very high selectivity, ratio>30-fold)	A (bin A for very high selectivity, ratio>30-fold)
C[C@H]1Oc2cc(cnc2N)-c2c(CC(F)F)nn(C)c2Cc2cc(C(F)F)nn2-c2ccc(F)cc21 [Example 180, (19R)-3-(2,2-difluoroethyl)-10-(difluoromethyl)-16-fluoro-5,19-dimethyl-20-oxa-4,5,11,12,23-pentaazapentacyclo[19.3.1.0^2,^6.0^8,^12.0^13,^18]pentacosa-1(24),2(6),3,8,10,13,15,17,21(25),22-decaen-22-amine]						A (bin A for very high selectivity, ratio>30-fold)	A (bin A for very high selectivity, ratio>30-fold)	C (bin C for moderate selectivity, ratio≥1)	A (bin A for very high selectivity, ratio>30-fold)
CCn1nc(OC)c2c1-c1cnc(N)c(c1)O[C@H](C)c1cc(F)ccc1-c1nn(C)cc1C2 [Example 181, (19R)-3-ethyl-16-fluoro-5-methoxy-10,19-dimethyl-20-oxa-3,4,10,11,23-pentaazapentacyclo[19.3.1.0^2,^6.0^8,^12.0^13,^18]pentacosa-1(24),2(6),4,8,11,13,15,17,21(25),22-decaen-22-amine]						A (bin A for very high selectivity, ratio>30-fold)	A (bin A for very high selectivity, ratio>30-fold)	C (bin C for moderate selectivity, ratio≥1)	A (bin A for very high selectivity, ratio>30-fold)

Second part, led by results:

Ki (ROS1-wt kinase domain) [nM]	Ki [1] [nM]	Ki [2] [nM]	Ki (ALK-wt kinase domain) [nM]	Ki (TRKA-wt kinase domain) [nM]	SMILES	TPM3-NTRK1-wt/CD74-ROS1-G2032R [3]	TPM3-NTRK1-wt/CD74-ROS1-wt [3]	TPM3-NTRK1-wt/EML4-ALK-L1196M-G1202R [3]	TPM3-NTRK1-wt/EML4-ALK-wt [3]
< 50	< 50	< 50	< 50	< 50	CCn1ncc2c1-c1cnc(N)c(c1)O[C@H](C)c1cc(F)ccc1-c1nn(C)cc1C2 [Compound 1]				
< 50	< 50	50 to 500	< 50	50 to 500	CC1Oc2cc(cnc2N)-c2c(cnn2C)Cc2cnn(C)c2-c2ccc(F)cc21 (stereo not drawn) [Compound 2]				
< 50	< 50	< 50	< 50	< 50	CCn1ncc2c1-c1cnc(N)c(c1)O[C@H](C)c1cc(F)ccc1-c1ncccc1C2 [Compound 3]				
< 50	< 50	< 50	< 50	50 to 500	CCc1c(C#N)nn2c1-c1cnc(N)c(c1)O[C@H](C)c1cc(F)ccc1-c1nn(C)cc1C2 [Compound 6]				
< 50	< 50	< 50	< 50	> 500	C[C@H]1Oc2cc(cnc2N)-c2c(C#N)ncn2Cc2cnccc2-c2ccc(F)cc21 [Compound 10]				
< 50	< 50	50 to 500	< 50	> 500	C[C@H]1Oc2cc(cnc2N)-c2c(C#N)ncn2Cc2ccncc2-c2ccc(F)cc21 [Compound 11]				
< 50	< 50	< 50	< 50	> 500	C[C@H]1Oc2cc(cnc2N)-c2c(C#N)ncn2Cc2cccnc2-c2ccc(F)cc21 [Compound 12]				
< 50	< 50	< 50	< 50	50 to 500	C[C@H]1Oc2cc(cnc2N)-c2c(C#N)cnn2Cc2cccnc2-c2ccc(F)cc21 [Compound 14]				
		< 50	< 50	> 500	C[C@H]1Oc2cc(cnc2N)-c2c(cnn2CC2(C)CC2)Cc2cn(C)nc2-c2ccc(F)cc21 [Compound 159]				
